Experimental data: ChEMBL document CHEMBL4673320, “Structure Elucidation of the spiro-Polyketide Svalbardine B from the Arctic Fungal Endophyte Poaceicola sp. E1PB with Support from Extensive ESI-MS Interpretation” (J Nat Prod, 2020)
Activity calls are given as the source filed them.

Legend:
SH-SY5Y = assay: Cytotoxicity against human SH-SY5Y cells assessed as reduction in cell viability at 20 uM after 24 hrs by MTT assay; assay type: functional, cell-based
Serratia marcescens = assay: Antibacterial activity against Serratia marcescens ATCC 14756 assessed as reduction in microbial growth at 20 uM after 18 hrs by resazurin based assay; assay type: functional, organism-based
Pseudomonas aeruginosa = assay: Antibacterial activity against Pseudomonas aeruginosa ATCC 10145 assessed as reduction in microbial growth at 20 uM after 18 hrs by resazurin based assay; assay type: functional, organism-based
Yersinia enterocolitica = assay: Antibacterial activity against Yersinia enterocolitica ATCC 23715 assessed as reduction in microbial growth at 20 uM after 18 hrs by resazurin based assay; assay type: functional, organism-based
Salmonella typhimurium = assay: Antibacterial activity against Salmonella typhimurium ATCC 14028 assessed as reduction in microbial growth at 20 uM after 18 hrs by resazurin based assay; assay type: functional, organism-based; details: Salmonella enterica subsp. enterica serovar Typhimurium, DT104 ATCC 14028
Enterobacter cloacae = assay: Antibacterial activity against Enterobacter cloacae ATCC 35030 assessed as reduction in microbial growth at 20 uM after 18 hrs by resazurin based assay; assay type: functional, organism-based
Shigella flexneri = assay: Antibacterial activity against Shigella flexneri ATCC 12020 assessed as reduction in microbial growth at 20 uM after 18 hrs by resazurin based assay; assay type: functional, organism-based
Escherichia coli = assay: Antibacterial activity against Escherichia coli ATCC 25922 assessed as reduction in microbial growth at 20 uM after 18 hrs by resazurin based assay; assay type: functional, organism-based
[1] = tested on: Staphylococcus ureilyticus; assay: Antibacterial activity against Staphylococcus cohnii subsp. urealyticum assessed as reduction in microbial growth after at 20 uM 18 hrs by resazurin based assay; assay type: functional
[2] = tested on: Staphylococcus haemolyticus; assay: Antibacterial activity against Staphylococcus haemolyticus ATCC 29970 assessed as reduction in microbial growth at 20 uM after 18 hrs by resazurin based assay; assay type: functional, organism-based
Staphylococcus aureus = assay: Antibacterial activity against Staphylococcus aureus ATCC 25923 assessed as reduction in microbial growth at 20 uM after 18 hrs by resazurin based assay; assay type: functional, organism-based

Measured: Activity

COc1cc(=O)oc(C[C@H](C)O)c1C
inactive: all assays above

COC(=O)c1cc(OC)cc(O)c1C(=O)C1CC2(CCc3cc(OC)cc(C(=O)OC)c3C2=O)C(=O)C2=C(C)OC(C)=CC21 (stereo unspecified)
inactive: all assays above

C=C1OC(=O)c2c(O)cc(OC)c(C)c2[C@H]1C
inactive: all assays above

COc1cc(O)c2c(c1C)[C@@H](C)[C@@](O)(CO)OC2=O
inactive: all assays above

CCCc1oc(=O)cc(OC)c1C
inactive: all assays above

COC(=O)c1cc(OC)cc2c1-c1oc(C)cc(=O)c1CO2
inactive: all assays above
